Columns and labels:
[1] = molecular target: chymotrypsin (Bos taurus, UniProt P00766); assay: Proteolytic stability in the presence of chymotrypsin (HPLC); conditions: chymotrypsin 1.0 μg/mL, peptide 10 μM
Description: This property can be assessed by incubating the macrocyclic peptidomimetic molecules and the corresponding reference non-macrocyclic polypeptides in the presence of purified proteases or, alternatively, human blood serum. The in vitro proteolytic degradation of the compounds can be then monitored over time by HPLC equipped with a UV detector. From the resulting time-dependent curves, the half-life of the compounds can be measured. As an example, the in vitro proteolytic stability of macrocycles was measured by incubating the compound (10 μM) in 50 mM potassium phosphate buffer (pH 7.5) in the presence of chymotrypsin (1.0 μg/mL) at room temperature. At different time points (e.g. 0, 30, 60, 120, 180, 240 min), an aliquot of the reaction mixture (50 μL) was removed, quenched addition of TFA (5 μL) followed by HPLC analysis. Peptide cleavage was monitored based on the decrease of the peak area corresponding to the integer peptide.
Each peptide (10 μM) was dissolved in 50 mM potassium phosphate buffer (pH 7.5) containing 150 mM NaCl and 10% DMSO. Chymotrypsin (Sigma-Aldrich) was added to a final concentration of 1.0 μg/mL and incubated at room temperature. At each time point, a 50 μL aliquot of the mixture was removed, quenched by TFA addition (5 μL) followed by HPLC analysis. Peptide cleavage was monitored based on the decrease of the peak area corresponding to the integer peptide. […]

[2] = Circular dichroism analysis of α-helicity; conditions: 5 mM potassium phosphate pH 7.0, 40% trifluoroethanol
Description: The alpha helical content of the macrocyclic peptidomimetic molecules and reference non-macrocyclic compounds disclosed herein can be determined by Circular Dichroism (CD) spectroscopy.
CD spectra were recorded with a JASCO J-710 CD spectropolarimeter using a 0.1 cm path length cuvette at room temperature. The purified peptides were dissolved in 5 mM potassium phosphate buffer (pH 7.0) containing 40% trifluoroethanol to a final concentration of 20-50 μM. […] The bandwidth was set to 2.0 nm and the sensitivity of the spectrometer set to 100 mdeg.

[3] = test system: SJSA-1 cells; assay: Cell viability (MTT) assay in SJSA-1 osteosarcoma cells; assay type: cell-based, human; conditions: overnight treatment
Description: The cytotoxic activity of the macrocyclic peptidomimetic molecules is determined, for example, in cell-based assays using tumorigenic and non-tumorigenic cell lines and primary cells derived from human or mouse cell populations. […]. Such assays can be used to assess the efficacy of the macrocyclic peptidomimetic molecules to reduce the viability of tumorigenic and non-tumorigenic cells. In addition, assays that measure Annexin V and caspase activation can be optionally used to assess whether the cytotoxicity of the macrocyclic peptidomimetic molecules is dependent upon activation of the apoptotic machinery, which is expected to result from reactivation of p53 activity.
Similar results were obtained for other p53 macrocyclic peptidomimetic molecules described in FIG. 10, resulting in LD50 in the low micromolar range.
Cultured SJSA-1 cells were maintained in the RPMI-1640 medium supplemented with 10% fetal bovine serum. For viability evaluation cells were seated in 96-well, tissue culture treated plates (2×10^4 cells/well) and incubated overnight. […] The cells were treated overnight and the viability was assessed by a standard MTT (3-(4,5-dimethylthiazol-2-yl)-2,5-diphenyltetrazolium bromide) assay. The viability is expressed as percentage of viability of the non-treated cells.

[4] = test system: p53(15-29)-HDM2 interaction; assay: HDM2 IC50 (nM)
Text: (§1) Table printed on a drawing sheet, FIG. 10
Head of the field: HDM2 IC50 (nM)
(§2) The patent's description of the figure: FIG. 10. Amino acid sequence, structure, and inhibitory activity of selected p53 macrocyclic peptidomimetics and reference linear peptides. The inhibitory activities refer to IC50 values for disruption of p53(15-29)-HDM2 interaction or p53(15-29)-HDMX interaction as determined using a Surface Plasmon Resonance-based inhibition assay.
(§3) First copying reader's note: In cyclic peptides the linker name (SP4, SP6, SP8, SP9) is printed above the sequence inside a bracket running from the pAcF/mAcF residue to the C-terminus; it is given here before the sequence.
(§4) Where the first naming reader finds the target: description_of_the_figure: IC50 values for disruption of p53(15-29)-HDM2 interaction or p53(15-29)-HDMX interaction

[5] = test system: p53(15-29)-HDMX interaction; assay: HDMX IC50 (nM)
Text: as §1
Head of the field: HDMX IC50 (nM)
as §2, §3, §4

[6] = molecular target: T1, HDMX (Homo sapiens, UniProt O15151); assay: SPR inhibition assay, disruption of p53(15-29)-HDMX interaction; assay type: binding; conditions: selectivity ratio between the two protein homologs
T1 construct: His tag (C); made in house; host or cells: E. coli BL21(DE3)
T1 sequence (O15151 1-109): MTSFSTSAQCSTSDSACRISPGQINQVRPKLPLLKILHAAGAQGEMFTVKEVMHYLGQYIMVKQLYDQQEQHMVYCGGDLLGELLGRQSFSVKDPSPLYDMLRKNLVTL
Text: The ability of the macrocyclic peptidomimetic molecules to bind a protein of interest and disrupt a target protein-protein interaction can be assessed, for example, via in vitro surface plasmon resonance (SPR)-based inhibition assays. For example, the ability of these compounds to inhibit the interaction of p53 with oncoprotein HDM2 and HDMX can be measured via an in-solution inhibition assay, in which a biotinylated p53-derived peptide (e.g., biotin-SGSG-p5315-29) is first immobilized on a streptavidin-coated biosensor chip. Soluble HDM2 (or HDMX) is then incubated with varying concentrations of the macrocycle and the mixture is then injected over the functionalized surface. With increasing concentrations of the inhibitor, binding of HDM2 (or HDMX) to the surface is inhibited, leading to a decrease in biosensor response. The response-concentration curves can be then analyzed to measure the inhibitory activity of the compounds in terms of half-maximal inhibitory concentration (IC50).
Briefly, biotin-conjugated […] peptide was first immobilized on a streptavidin-coated biosensor chip and increasing concentrations of the inhibitors were added to a fixed concentration of HDM2 or HDMX. From the corresponding dose-response curves (FIGS. 12A-12B), half-maximal inhibitory concentrations (IC50) were determined for the compounds as summarized in FIG. 10. […]

[7] = test system: HEK-293 cells; assay: Cell penetration by confocal fluorescence microscopy; assay type: cell-based, human; conditions: fluorescein-conjugated compound, 20 μM, 2 h
Description: In some embodiments, the macrocyclic peptidomimetics described herein are more cell permeable than a corresponding non-macrocyclic counterpart. […] To measure the cell permeability of these compounds, intact cells are incubated with fluorescently labeled (e.g. fluorescein-conjugated) macrocyclic peptidomimetic molecule or corresponding non-macrocyclic counterpart (10 μM) for 4 hrs in serum free media at 37° C. Cells are then washed twice with media, incubated with trypsin (e.g. 0.25% trypsin, 10 min, 37° C.), then washed again and resuspended in PBS. Cellular fluorescence is analyzed, for example, by using a FACSCalibur flow cytometer. Alternatively, the ability of the fluorescently labelled compound to penetrate cells can be assessed by confocal fluorescence microscopy.
Similar results were obtained for other p53 macrocyclic peptidomimetic molecules described in FIG. 10.
The cell permeability properties of the macrocyclic peptidomimetics and reference linear peptides were assessed using HEK-293 cell line. These cells were cultured in the DMEM medium supplemented with 10% fetal bovine serum and penicillin/streptomycin. For the cell permeability evaluations, cells were seated overnight (1×10^4 cells/well) in 24-well tissue culture treated plates with glass bottom. […]

CC1=NOCc2cn(nn2)Cc2ccc(CSCC(N)=O)c(c2)NC(=O)[C@H](C)NC(=O)[C@H](CC(C)C)NC(=O)[C@H](CC(C)C)NC(=O)[C@H](CC(N)=O)NC(=O)[C@H](Cc2c[nH]c3ccccc23)NC(=O)[C@H](Cc2ccc(O)cc2)NC(=O)[C@H](CCC(=O)O)NC(=O)[C@H](C)NC(=O)[C@H](Cc2ccccc2)NC(=O)[C@H](CO)NC(=O)[C@@H](NC(=O)CN)Cc2ccc1cc2 [P7]
survival of incubation with the protease, up to [1]: up to 3 hour | α-helical content [2]: 40%

COc1ccc(C2=N[C@@H](c3ccc(Cl)cc3)[C@@H](c3ccc(Cl)cc3)N2C(=O)N2CCNC(=O)C2)c(OC(C)C)c1 [nutlin-3]
viability of SJSA-1 cells upon treatment [3]: responsiveness of the cells to p53-HDM2 inhibition was confirmed

CC1=NOCc2ccc(CS)c(c2)NC(=O)[C@H](C)NC(=O)[C@H](CC(C)C)NC(=O)[C@H](CC(C)C)NC(=O)[C@H](CC(N)=O)NC(=O)[C@H](Cc2c[nH]c3ccccc23)NC(=O)[C@H](Cc2ccc(O)cc2)NC(=O)[C@H](CCC(=O)O)NC(=O)[C@H](C)NC(=O)[C@H](Cc2ccccc2)NC(=O)[C@H](CO)NC(=O)[C@@H](NC(=O)CN)Cc2ccc1cc2 [P9]
IC50 [4]: > 50000 nM | IC50 [5]: > 50000 nM

P6: unconstrained reference linear peptide (SEQ ID NO. 44), acyclic counterpart of P7 and P8 (GYSFAEYWNLLA; Engineered Sequence) [reference compound]
IC50(HDMX)/IC50(HDM2) [6]: 5.5 | α-helical content [2]: about 31%

CC1=NOCCCNC(=O)c2ccc(CSCC(N)=O)c(c2)NC(=O)[C@H](C)NC(=O)[C@H](CC(C)C)NC(=O)[C@H](CC(C)C)NC(=O)[C@H](CC(N)=O)NC(=O)[C@H](Cc2c[nH]c3ccccc23)NC(=O)[C@H](Cc2ccc(O)cc2)NC(=O)[C@H](CCC(=O)O)NC(=O)[C@H](C)NC(=O)[C@H](Cc2ccccc2)NC(=O)[C@H](CO)NC(=O)[C@@H](NC(=O)CN)Cc2ccc1cc2 [P8]
survival of incubation with the protease, up to [1]: ≤ 4 h | viability of SJSA-1 cells upon treatment [3]: a reduction of cell viability | α-helical content [2]: 21% | cellular uptake (confocal fluorescence microscopy) [7]: diffuse fluorescence at the intracellular level

P6: unconstrained reference linear peptide (SEQ ID NO. 44), acyclic counterpart of P7 and P8 (GYSFAEYWNLLA; Engineered Sequence)
IC50 [4]: 65 nM | IC50 [5]: 355 nM
